Earlier results in patent US6809181B2, “Human beta-defensin-3 (HBD-3), a highly cationic beta-defensin antimicrobial peptide” (University of Iowa Research Foundation, priority 2000, dated 2004).
Converted amounts (≈) assume the structure as drawn. Like-named read-outs stand apart in the source and are kept apart here.

What was measured:
Enterococcus faecalis = conditions: cited from earlier work
Campylobacter pylori = conditions: n=56, r43, cited from earlier work
[1] = system: Neisseria gonorrhoeae (non β-lactamase producer); conditions: cited from earlier work
[2] = system: Bordetella bronchiseptica; conditions: n=11, r8, cited from earlier work
Staphylococcus hominis = conditions: n=20; r122; unit assumed; cited from earlier work
Enterococcus spp. = conditions: n=35, r52, cited from earlier work
[3] = system: Staphylococcus aureus (methicillin resistant); conditions: cited from earlier work
Bordetella parapertussis = conditions: n=46; r9; unit assumed; cited from earlier work
[4] = system: Haemophilus influenzae (penicillin susceptible); conditions: n=22, r64, cited from earlier work
[5] = system: Staphylococcus aureus (penicillin susceptible); conditions: cited from earlier work; for MIC50 / MIC90: unit assumed
[6] = system: Haemophilus influenzae (β-lactamase producer); conditions: cited from earlier work
Streptococcus pneumoniae = conditions: cited from earlier work; for MIC90: unit assumed
[7] = system: Branhamella (Moraxella) catarrhalis (β-lactamase producer); conditions: cited from earlier work
Neisseria gonorrhoeae = conditions: n=19, r81, cited from earlier work
Haemophilus ducreyi = conditions: n=122; r53; unit assumed; cited from earlier work
Corynebacterium JK = conditions: n=19; r46; unit assumed; cited from earlier work
Nocardia asteroides = conditions: n=78, r91, cited from earlier work
Streptococcus pyogenes = conditions: cited from earlier work
Streptococcus spp. = conditions: cited from earlier work; for MIC50 / MIC90: unit assumed
Listeria monocytogenes = conditions: cited from earlier work; for MIC50 / MIC90: unit assumed
Neisseria meningitidis = conditions: n=19, r90, cited from earlier work
[8] = system: Neisseria gonorrhoeae (β-lactamase producer); conditions: cited from earlier work
[9] = system: Branhamella (Moraxella) catarrhalis (non β-lactamase producer); conditions: cited from earlier work
Enterococcus faecium = conditions: n=14, r51, cited from earlier work
Bacillus spp. = conditions: cited from earlier work
[10] = system: Haemophilus influenzae (penicillin resistant); conditions: n=20, r66, cited from earlier work
[11] = system: Staphylococcus haemolyticus; conditions: n=20; r121; unit assumed; cited from earlier work

For `CC[C@H]1OC(=O)[C@H](C)[C@@H](O[C@H]2C[C@@](C)(OC)[C@@H](O)[C@H](C)O2)[C@H](C)[C@@H](O[C@@H]2O[C@H](C)C[C@H](N(C)C)[C@H]2O)[C@](C)(O)C[C@@H](C)C(=O)[C@H](C)[C@@H](O)[C@]1(C)O` [ERYTHROMYCIN, erythromycin], the Range (Enterococcus faecalis; n=26, r47) is listed as 1-64, the MIC50 (Enterococcus faecalis; n=26, r47, unit assumed) is listed as 1 µg/mL (≈ 1.36 µM) and the MIC90 (Enterococcus faecalis; n=26, r47, unit assumed) is listed as 4 µg/mL (≈ 5.45 µM). The Range (Enterococcus faecalis; n=50, r48) was 0.06-64, the MIC50 (Enterococcus faecalis; n=50, r48, unit assumed) was 4 µg/mL (≈ 5.45 µM) and the MIC50 (Enterococcus faecalis; n=86, r49, unit assumed) was 1 µg/mL (≈ 1.36 µM). The MIC50 (Enterococcus faecalis; n=97, r50, unit assumed) was 2 µg/mL (≈ 2.73 µM), the Range (Campylobacter pylori) was 0.25-16 and the MIC50 (Campylobacter pylori; unit assumed) was 0.5 µg/mL (≈ 0.681 µM). For the same compound, the MIC90 (Campylobacter pylori; unit assumed) was 1 µg/mL (≈ 1.36 µM), the Range ([1]; n=73, r82) was 0.015-4 and the Range ([1]; n=78, r84) was 0.03-2. The Range [2] was 4-32, the MIC50 ([2]; unit assumed) was 8 µg/mL (≈ 10.9 µM) and the MIC90 ([2]; unit assumed) was 32 µg/mL (≈ 43.6 µM). For the same compound, the MIC50 (Staphylococcus hominis) was 64 µg/mL (≈ 87.2 µM), the Range (Enterococcus spp.) was 0.06-32 and the MIC50 (Enterococcus spp.; unit assumed) was 2 µg/mL (≈ 2.73 µM). For the same compound, the MIC90 (Enterococcus spp.; unit assumed) was 32 µg/mL (≈ 43.6 µM), the Range ([3]; n=15, r108) was 64 and the MIC50 ([3]; n=15, r108, unit assumed) was 64 µg/mL (≈ 87.2 µM). For the same compound, the Range ([3]; n=20, r110) was 64, the MIC50 ([3]; n=20, r110, unit assumed) was 64 µg/mL (≈ 87.2 µM) and the Range ([3]; n=30, r112) was 0.06-32. For the same compound, the MIC50 ([3]; n=30, r112, unit assumed) was 32 µg/mL (≈ 43.6 µM), the MIC90 ([3]; n=30, r112, unit assumed) was 32 µg/mL (≈ 43.6 µM) and the MIC50 (Bordetella parapertussis) was 0.25 µg/mL (≈ 0.341 µM). The Range [4] was 0.25-16, the MIC50 ([4]; unit assumed) was 8 µg/mL (≈ 10.9 µM) and the MIC90 ([4]; unit assumed) was 16 µg/mL (≈ 21.8 µM). The MIC50 ([5]; n=20, r94) was 0.5 µg/mL (≈ 0.681 µM), the MIC90 ([5]; n=20, r94) was 0.5 µg/mL (≈ 0.681 µM) and the Range ([5]; n=35, r96) was 0.06-32. The MIC50 ([5]; n=35, r96) was 0.25 µg/mL (≈ 0.341 µM), the MIC90 ([5]; n=35, r96) was 0.5 µg/mL (≈ 0.681 µM) and the Range ([6]; n=17, r62) was 0.25-4. For the same compound, the Range ([6]; n=46, r60) was 0.06-8, the Range (Streptococcus pneumoniae; n=26, r129) was 0.015-0.25 and the MIC90 (Streptococcus pneumoniae; n=26, r129) was 0.06 µg/mL (≈ 0.0818 µM). The Range (Streptococcus pneumoniae; n=50, r127) was 0.015-0.06, the MIC90 (Streptococcus pneumoniae; n=50, r127) was 0.03 µg/mL (≈ 0.0409 µM) and the MIC90 (Streptococcus pneumoniae; n=50, r130) was 0.06 µg/mL (≈ 0.0818 µM). For the same compound, the Range (Streptococcus pneumoniae; n=58, r125) was 0.03-0.25, the Range ([7]; n=47, r29) was 0.06-1 and the Range ([7]; n=58, r32) was 0.03-0.25. For the same compound, the Range ([7]; n=160, r35) was 0.06-8, the Range (Neisseria gonorrhoeae) was 0.0075-8 and the MIC50 (Neisseria gonorrhoeae; unit assumed) was 0.25 µg/mL (≈ 0.341 µM). The MIC90 (Neisseria gonorrhoeae; unit assumed) was 1 µg/mL (≈ 1.36 µM), the MIC50 (Haemophilus ducreyi) was 0.004 µg/mL (≈ 0.00545 µM) and the MIC90 (Haemophilus ducreyi) was 0.06 µg/mL (≈ 0.0818 µM). For the same compound, the MIC50 (Corynebacterium JK) was 2 µg/mL (≈ 2.73 µM), the Range (Nocardia asteroides) was 0.25-8 and the MIC50 (Nocardia asteroides; unit assumed) was 8 µg/mL (≈ 10.9 µM). For the same compound, the MIC90 (Nocardia asteroides; unit assumed) was 8 µg/mL (≈ 10.9 µM), the Range (Streptococcus pyogenes; n=19, r131) was 0.03-0.25 and the Range (Streptococcus pyogenes; n=20, r132) was 0.03-0.25. For the same compound, the Range (Streptococcus pyogenes; n=20, r134) was 0.06-32, the MIC90 (Streptococcus pyogenes; n=20, r134, unit assumed) was 32 µg/mL (≈ 43.6 µM) and the Range (Streptococcus pyogenes; n=33, r133) was 0.015-0.03. The MIC50 (Streptococcus pyogenes; n=33, r133, unit assumed) was 0.03 µg/mL (≈ 0.0409 µM), the MIC90 (Streptococcus pyogenes; n=33, r133, unit assumed) was 0.03 µg/mL (≈ 0.0409 µM) and the Range (Streptococcus spp.; n=22, r135) was 0.015-0.25. For the same compound, the MIC50 (Streptococcus spp.; n=22, r135) was 0.03 µg/mL (≈ 0.0409 µM), the MIC90 (Streptococcus spp.; n=22, r135) was 0.06 µg/mL (≈ 0.0818 µM) and the Range (Streptococcus spp.; n=107, r136) was 0.004-2. The MIC50 (Streptococcus spp.; n=107, r136) was 0.03 µg/mL (≈ 0.0409 µM), the MIC90 (Streptococcus spp.; n=107, r136) was 1 µg/mL (≈ 1.36 µM) and the Range (Listeria monocytogenes; n=13, r74) was 0.5-1. For the same compound, the MIC50 (Listeria monocytogenes; n=13, r74) was 0.5 µg/mL (≈ 0.681 µM), the MIC90 (Listeria monocytogenes; n=13, r74) was 0.5 µg/mL (≈ 0.681 µM) and the MIC50 (Listeria monocytogenes; n=16, r75) was 0.25 µg/mL (≈ 0.341 µM). The MIC90 (Listeria monocytogenes; n=16, r75) was 1 µg/mL (≈ 1.36 µM), the Range (Listeria monocytogenes; n=65, r76) was 0.06-32 and the MIC90 (Listeria monocytogenes; n=65, r76) was 32 µg/mL (≈ 43.6 µM). The Range (Neisseria meningitidis) was 0.5-8, the MIC50 (Neisseria meningitidis; unit assumed) was 1 µg/mL (≈ 1.36 µM) and the MIC90 (Neisseria meningitidis; unit assumed) was 8 µg/mL (≈ 10.9 µM). For the same compound, the Range ([8]; n=12, r86) was 0.03-4, the Range ([8]; n=17, r88) was 1-4 and the Range ([9]; n=14, r23) was 0.06-1. For the same compound, the Range ([9]; n=16, r26) was 0.015-1, the Range ([9]; n=40, r17) was 0.06-0.5 and the Range (Enterococcus faecium) was 0.06-64. The MIC50 (Enterococcus faecium; unit assumed) was 1 µg/mL (≈ 1.36 µM), the Range (Bacillus spp.; n=20, r6) was 0.03-2 and the MIC90 (Bacillus spp.; n=20, r6, unit assumed) was 2 µg/mL (≈ 2.73 µM). The MIC50 (Bacillus spp.; unit assumed) was 0.25 µg/mL (≈ 0.341 µM), the Range [10] was 8-16 and the MIC50 ([10]; unit assumed) was 8 µg/mL (≈ 10.9 µM). The MIC90 ([10]; unit assumed) was 16 µg/mL (≈ 21.8 µM) and the MIC50 [11] was 64 µg/mL (≈ 87.2 µM).
